Test results: US20260256134A1, “NanoEmulsion Composite Mixture of Essential Oils with Biodegradable Polymers and Co-Surfactants for Antimicrobial Activities and Enhanced Thermal Stability and Antioxidant Activities” (The American University in Cairo, priority 2022, published 2026)

Legend:
[1] = orally administered to rats; cited from earlier work
MRSA = assay: Inhibition zone method, antimicrobial activity; type: cell-based, Methicillin-resistant Staphylococcus aureus (MRSA)
From the text: (§1) Inhibition zone method was followed in order to test the antimicrobial efficiency of the selected nanoemulsion composite mixture samples against 6 chosen strains of gram-positive bacterial strains, 6 strains of gram-negative bacterial strains 6 strains of fungi as shown in the following list;
(§2) The following formulae were defined: • Formula 1 (F1): Green tea essential oil • Formula 2 (F2): Chitosan solution • Formula 3 (F3): benzalkonium solution • Formula 4 (F4): control (antimicrobial compound) • Formula 5 (F5): Green tea essential oil+Chitosan solution • Formula 6 (F6): The final formula of the nanoemulsion composite mixture
(§3) Inhibition zone method was followed in order to test the antimicrobial efficiency of the 6 selected nanoemulsion composite mixture samples against 6 chosen strains of gram-positive bacterial strains, 6 strains of gram-negative bacterial strains 6 strains of fungi.

Aspergillus fumigatus = assay: Inhibition zone method, antimicrobial activity; type: cell-based
From the text: as §1, §2, §3

Aspergillus niger = assay: Inhibition zone method, antimicrobial activity; type: cell-based
From the text: as §1, §2, §3

Bacillus subtilis = assay: Inhibition zone method, antimicrobial activity; type: cell-based
From the text: as §1, §2, §3

Candida albicans = assay: Inhibition zone method, antimicrobial activity; type: cell-based
From the text: as §1, §2, §3

Eisherecia coli = assay: Inhibition zone method, antimicrobial activity; type: cell-based
From the text: as §1, §2, §3

Enterobacter colacae = assay: Inhibition zone method, antimicrobial activity; type: cell-based
From the text: as §1, §2, §3

Enterococcus faecalis = assay: Inhibition zone method, antimicrobial activity; type: cell-based
From the text: as §1, §2, §3

Fusarium moniliform = assay: Inhibition zone method, antimicrobial activity; type: cell-based
From the text: as §1, §2, §3

Klebsella pneumonia = assay: Inhibition zone method, antimicrobial activity; type: cell-based
From the text: as §1, §2, §3

Micrococcus spp. = assay: Inhibition zone method, antimicrobial activity; type: cell-based
From the text: as §1, §2, §3

Penicillium italicum = assay: Inhibition zone method, antimicrobial activity; type: cell-based
From the text: as §1, §2, §3

Proteus vulgaris = assay: Inhibition zone method, antimicrobial activity; type: cell-based
From the text: as §1, §2, §3

Pseudomonas aeruginosa = assay: Inhibition zone method, antimicrobial activity; type: cell-based
From the text: as §1, §2, §3

Salmonella Typhium = assay: Inhibition zone method, antimicrobial activity; type: cell-based
From the text: as §1, §2, §3

Staphylococcus aureus = assay: Inhibition zone method, antimicrobial activity; type: cell-based
From the text: as §1, §2, §3

Streptococcus mutants = assay: Inhibition zone method, antimicrobial activity; type: cell-based
From the text: as §1, §2, §3

Geotricum candiaum = assay: Inhibition zone method, antimicrobial activity; type: cell-based, Geotricum candidum
From the text: as §1, §2, §3

Row | Substance | Lethal dose 50 (LD50) [1] [mg/kg] | Antimicrobial activity expressed as % inhibition (MRSA) [%] | Antimicrobial activity expressed as % inhibition (Aspergillus fumigatus) [%] | Antimicrobial activity expressed as % inhibition (Aspergillus niger) [%] | Antimicrobial activity expressed as % inhibition (Bacillus subtilis) [%] | Antimicrobial activity expressed as % inhibition (Candida albicans) [%] | Antimicrobial activity expressed as % inhibition (Eisherecia coli) [%] | Antimicrobial activity expressed as % inhibition (Enterobacter colacae) [%] | Antimicrobial activity expressed as % inhibition (Enterococcus faecalis) [%] | Antimicrobial activity expressed as % inhibition (Fusarium moniliform) [%] | Antimicrobial activity expressed as % inhibition (Klebsella pneumonia) [%] | Antimicrobial activity expressed as % inhibition (Micrococcus spp.) [%] | Antimicrobial activity expressed as % inhibition (Penicillium italicum) [%] | Antimicrobial activity expressed as % inhibition (Proteus vulgaris) [%] | Antimicrobial activity expressed as % inhibition (Pseudomonas aeruginosa) [%] | Antimicrobial activity expressed as % inhibition (Salmonella Typhium) [%] | Antimicrobial activity expressed as % inhibition (Staphylococcus aureus) [%] | Antimicrobial activity expressed as % inhibition (Streptococcus mutants) [%] | Antimicrobial activity expressed as % inhibition (Geotricum candiaum) [%]
1 | Benzalkonium chloride [BAC] | 234 to 525 | – | – | – | – | – | – | – | – | – | – | – | – | – | – | – | – | – | –
2 | benzalkonium [Formula F3] | – | 90 | 52 | 70 | 72 | 50 | 63 | 94 | 60 | 90 | 80 | 64 | 96 | 95 | 66 | 41 | 50 | 45 | 89
